Test results published in patent US9850343B2, “Method for producing liquid crystalline polyester, and liquid crystalline polyester” (TORAY Industries, Inc., priority 2013, dated 2017).

Test: Acid dissociation constant (pKa) in aqueous sulfonic acid solution
Assay type: physicochemical
Conditions: aqueous sulfonic acid solution titrated at 25° C. with aqueous sodium hydroxide; from pH at 50% neutralization
Procedure: Examples of the method for measuring pKa include a method in which an aqueous aliphatic sulfonic acid solution is titrated with a titrant such as sodium hydroxide at 25° C., and pKa is calculated from the pH value at the time point when 50% neutralization was achieved.
(7) Acid Dissociation Constant (pKa) in Aqueous Sulfonic Acid Solution
The aqueous sulfonic acid solution used in each of Examples and Comparative Examples was subjected to titration at 25° C. using an aqueous sodium hydroxide solution, and the acid dissociation constant was calculated based on the pH value at the time point when 50% neutralization was achieved.

pKa	Structure (SMILES)
-1.3	CCS(=O)(=O)O [ethanesulfonic acid]
0.3	CCCCCCCCCCCCS(=O)(=O)O [n-dodecylsulfonic acid]
